Source: BindingDB's records for doi:10.1007/s10822-022-00478-x (Roche Innovation Center Basel, F. Hoffmann-La Roche Ltd., 2022)
pIC50: −log10 of the molar value.

What follows are compounds tested against cAMP and cAMP-inhibited cGMP 3',5'-cyclic phosphodiesterase 10A (Homo sapiens, UniProt Q9Y233) (assay: PDE10A assay).
Protocol: Compounds were diluted in 20 mM HEPES/NaOH (pH 7.5), 10 mM MgCl2 and 0.05 mg/ml bovine serum albumin. A fixed amount of 2 ng/well human PDE10A enzyme was added and incubated at room temperature for 15 min under agitation. The reaction was started by the addition of the substrate cocktail [3H]cGMP (Perkin Elmer NET337001MC, S.A. 13.5 Ci/mmol) / cGMP at a final concentration of 50 nM and incubated for an additional 15 min. The reaction was stopped by the addition of 0.5 mg/well of Y-Si SPA beads. The plates were shaken for 1 h, followed by a brief centrifugation (170 g for 1 min). The radioactivity bound to the beads was estimated using a TopCount (Perkin-Elmer). For the determination of IC50 values, a four parameters logistics equation was used. pIC50 is defined as − log10(IC50).

| SMILES | pIC50 |
| --- | --- |
| Cc1nccc2nc(CCc3nc(N4CCCC4)nn3C)nn12 [Roche-Dataset for PDE10A, Compound 714] | 7.08 |
| Cc1ncc(C)n2nc(CCc3nc(C)n(-c4ccccc4)n3)nc12 [Roche-Dataset for PDE10A, Compound 456] | 6.13 |
| CNC(=O)c1cc2[nH]c(-c3ccccc3)nc2cc1NC(=O)c1c(Cl)c(C)nn1C [Roche-Dataset for PDE10A, Compound 358] | 7.66 |
| Cc1ncc(C)n2nc(CCc3nc(-c4cn[nH]c4)nn3C)nc12 [Roche-Dataset for PDE10A, Compound 961] | 7.06 |
| CC1(NC(=O)c2ncccc2NC(=O)c2nc(C3CC3)cnc2Nc2cncnc2)COC1 [US8703768, 275] | 9.42 |
| Cn1nc(-c2ccccn2)cc1NC(=O)c1cc(Br)c[nH]c1=O [Roche-Dataset for PDE10A, Compound 636] | 6.53 |
| CC(C)c1nnc2c(C(=O)NCCc3nc(-c4ccccc4)cn3C)cccn12 [Roche-Dataset for PDE10A, Compound 201] | 7.60 |
| O=C(Nc1nc2cccnc2s1)c1nc(C2CC2)ccc1Nc1cncnc1 [Roche-Dataset for PDE10A, Compound 811] | 7.70 |
| Cn1ncc(C(=O)N2CCC2)c1C(=O)Nc1ccn(CCF)n1 [Roche-Dataset for PDE10A, Compound 1082] | 6.26 |
| Cc1c(Cl)cc(Cl)c2nc(CCc3nc(N4CCCC4)no3)nn12 [Roche-Dataset for PDE10A, Compound 521] | 7.77 |
| O=C(Nc1cccc(N2CCS(=O)(=O)CC2)c1)c1nc(C2CC2)cnc1Nc1cncnc1 [Roche-Dataset for PDE10A, Compound 777] | 7.66 |
| Cn1ncc(C(=O)NCc2cccc(C(F)(F)F)n2)c1C(=O)Nc1ccn2cc(-c3ccccc3)nc2n1 [Roche-Dataset for PDE10A, Compound 1157] | 5.32 |
| Cn1nccc1NC(=O)c1c(C(=O)N2CCC2)cnn1C [Roche-Dataset for PDE10A, Compound 1138] | 5.72 |
| CNC(=O)[C@H]1CCC[C@@H]1NC(=O)c1nc(C2CC2)cnc1Nc1cncnc1 [Roche-Dataset for PDE10A, Compound 1000] | 6.16 |
| COCc1ccc(Nc2cncnc2)c(C(=O)Nc2cc(-c3ccccn3)nn2C)n1 [US8470820, 59] | 8.18 |
| CCC(=O)c1cc(NC(=O)c2nc(C3CC3)cnc2Nc2cncnc2)ccc1O [Roche-Dataset for PDE10A, Compound 875] | 7.59 |
| Cc1[nH]c(-c2ccncc2)nc1CCN1C(=O)c2ccccc2C1=O [Roche-Dataset for PDE10A, Compound 395] | 4.76 |
| CC(=O)Nc1nc2cc(NC(=O)c3nc(C)ccc3C)ccc2s1 [Roche-Dataset for PDE10A, Compound 926] | 5.24 |
| CNC(=O)c1c(NC(=O)c2nc(OC)cnc2Nc2cncnc2)cnn1C [US8703768, 258] | 6.85 |
| CCn1nc(NC(=O)c2c(C(=O)N3CCC3)cnn2C)cc1-c1cccc(Cl)c1 [Roche-Dataset for PDE10A, Compound 744] | 5.79 |
| CCn1ncc(NC(=O)c2c(C(=O)N3CCC3)cnn2C)c1C(=O)NCC(C)C [Roche-Dataset for PDE10A, Compound 1057] | 6.23 |

| SMILES | pIC50 |
| --- | --- |
| CN(C)c1nc2cc(NC(=O)c3c(C(=O)N4CC(F)C4)cnn3C)ccn2n1 [Roche-Dataset for PDE10A, Compound 513] | 7.70 |
| CC1(CNC(=O)c2nc(C3CC3)cnc2Nc2cncnc2)COC1 [Roche-Dataset for PDE10A, Compound 1092] | 5.53 |
| Cn1ncc(C(=O)N2CCC2)c1C(=O)Nc1ccn(-c2ccccc2F)n1 [Roche-Dataset for PDE10A, Compound 1043] | 6.40 |
| CNC(=O)c1cc2[nH]c(-c3ccccc3)nc2cc1NC(=O)c1ccnn1C [Roche-Dataset for PDE10A, Compound 452] | 7.85 |
| CCn1ccc(NC(=O)c2nc(C3CC3)ccc2Nc2cncnc2)n1 [Roche-Dataset for PDE10A, Compound 819] | 7.14 |
| CN(C)c1nc(OCc2cc3ccccn3n2)nc2ccc(Cl)cc12 [Roche-Dataset for PDE10A, Compound 586] | 6.37 |
| Cn1ncc(C(=O)N2CCC2)c1C(=O)Nc1n[nH]cc1C#N [Roche-Dataset for PDE10A, Compound 1112] | 6.49 |
| CC(C)(NC(=O)c1nc(C2CC2)cnc1Nc1cncnc1)c1nnc(-c2cccnc2)o1 [Roche-Dataset for PDE10A, Compound 1006] | 5.84 |
| COCc1cnn(C)c1C(=O)Nc1ccn2nc(-c3ccccc3)nc2c1 [Roche-Dataset for PDE10A, Compound 239] | 7.85 |
| COc1ccccc1-c1nc2cc(NC(=O)c3c(C(=O)N4CCC4)cnn3C)ccn2n1 [Roche-Dataset for PDE10A, Compound 120] | 9.22 |
| COc1ncccc1C(=O)Nc1cc(-c2ccccn2)nn1C [Roche-Dataset for PDE10A, Compound 921] | 5.01 |
| Cn1ncc(C(=O)N2CCC2)c1C(=O)Nc1cc(-c2ccccc2Cl)n[nH]1 [Roche-Dataset for PDE10A, Compound 958] | 5.89 |
| Cn1cc(-c2ccccc2)nc1CCNC(=O)c1nc(C2CC2)cnc1Nc1cncnc1 [Roche-Dataset for PDE10A, Compound 36] | 7.80 |
| CNC(=O)c1cc(F)c(F)cc1NC(=O)c1nc(C2CC2)cnc1Nc1cncnc1 [US8703768, 288] | 9.13 |
| Cc1cccc(-c2cn3c(n2)C[C@H](NC(=O)c2c(C(=O)N(C)C4CC4)cnn2C)CC3)c1 [Roche-Dataset for PDE10A, Compound 114] | 8.07 |
| CNC(=O)c1c(F)cc(F)cc1NC(=O)c1nc(C2CC2)cnc1Nc1cncnc1 [US8703768, 299] | 9.49 |
| CNC(=O)c1cc2[nH]c(-c3ccccc3)nc2cc1NC(=O)c1cc(C)nn1C(C)(C)C [Roche-Dataset for PDE10A, Compound 558] | 6.03 |
| Cc1ncc(C)n2nc(/C=C/c3nc(-c4cccn4C)nn3C)nc12 [Roche-Dataset for PDE10A, Compound 440] | 7.92 |
| COCCNC(=O)c1cc2[nH]c(-c3ccccc3)nc2cc1NC(=O)c1cc(C2CC2)cnc1OC [Roche-Dataset for PDE10A, Compound 349] | 9.18 |
| CN(C)c1nc(OCc2cccc(N3CCCC3)n2)nc2ccc(Cl)cc12 [6-chloro-n,n-dimethyl-2-((6-(pyrrolidin-1-yl)pyridin-2-yl)methoxy)quinazolin-4-amine] | 8.11 |
| CNc1nc2cc(NC(=O)c3c(C(=O)N4CCC4)cnn3C)ccn2n1 [Roche-Dataset for PDE10A, Compound 704] | 8.11 |

| SMILES | pIC50 |
| --- | --- |
| CN(C(=O)c1cnn(C)c1C(=O)N[C@@H]1CCn2cc(-c3ccccc3)nc2C1)C1COC1 [Roche-Dataset for PDE10A, Compound 248] | 7.36 |
| CCc1ccc(NC(=O)c2nc(C3CC3)cnc2Nc2cncnc2)c(C(=O)NCC(C)(C)O)n1 [US8703768, 181] | 9.39 |
| Cc1ncc(C(=O)Nc2ccn3nc(-c4ccccc4)nc3c2)cn1 [Roche-Dataset for PDE10A, Compound 813] | 5.00 |
| Cc1c(Cl)nn2c(C)c(/C=C/c3nc(N4CCCC4)nn3C)nc2c1C [Roche-Dataset for PDE10A, Compound 309] | 7.32 |
| CC(=O)Nc1cccc(NC(=O)c2nc(C3CC3)cnc2Nc2cncnc2)c1 [Roche-Dataset for PDE10A, Compound 571] | 7.46 |
| COc1ccccc1-c1cn2c(n1)C[C@H](NC(=O)c1c(C(=O)N3CC(F)C3)cnn1C)CC2 [Roche-Dataset for PDE10A, Compound 379] | 8.36 |
| Cn1ncc(C(=O)N2CC(F)C2)c1C(=O)Nc1ccn2nc(-c3ccccc3)nc2c1 [Roche-Dataset for PDE10A, Compound 165] | 9.44 |
| O=C(NC1CCN(Cc2ccccc2)CC1)c1nc(C2CC2)cnc1Nc1cncnc1 [Roche-Dataset for PDE10A, Compound 823] | 5.30 |
| O=C(O)c1cccnc1C(=O)Nc1ccn2nc(-c3ccccc3)nc2c1 [Roche-Dataset for PDE10A, Compound 381] | 6.19 |
| O=C(Nc1ccn2nc(-c3ccccc3)nc2c1)c1cc(Cl)ccn1 [Roche-Dataset for PDE10A, Compound 454] | 7.12 |
| Cc1ncc(C)n2nc(/C=C/c3nc(N4CCC[C@H]4CF)nn3C)nc12 [Roche-Dataset for PDE10A, Compound 691] | 6.10 |
| CCN(CC)C(=O)c1cnn(C)c1C(=O)Nc1ccn2nc(N3CCOCC3)nc2c1 [Roche-Dataset for PDE10A, Compound 203] | 7.66 |
| Cc1nc2ccc(CCc3nc(-c4ccccc4)cn3C)nn2c1CO [US10399985, Example 15] | 7.68 |
| COCCN(C)C(=O)c1cnn(C)c1C(=O)N[C@@H]1CCn2cc(-c3ccccc3)nc2C1 [Roche-Dataset for PDE10A, Compound 112] | 7.47 |
| CCn1nccc1NC(=O)c1ccc2cc(-c3ccccc3)nn2c1 [Roche-Dataset for PDE10A, Compound 654] | 6.24 |
| COc1ccc(Cn2ccc(NC(=O)c3c(C(=O)N4CCC4)cnn3C)n2)cc1 [Roche-Dataset for PDE10A, Compound 977] | 7.10 |
| Cc1cc(Cl)c(C)n2nc(CCc3nc(N4CCCC4)n(C)n3)nc12 [Roche-Dataset for PDE10A, Compound 374] | 9.33 |
| Cc1nc(C)n2nc(/C=C/c3nc(N4CCCC4)nn3C)nc2c1Cl [Roche-Dataset for PDE10A, Compound 382] | 7.62 |
| Cn1ncc(C(=O)N2CCC2)c1C(=O)Nc1cc(-c2ccccc2Cl)nn1C1CCCC1 [Roche-Dataset for PDE10A, Compound 438] | 6.06 |
| CS(=O)(=O)c1ccccc1NC(=O)c1nc(C2CC2)ccc1Nc1cncnc1 [Roche-Dataset for PDE10A, Compound 1071] | 7.57 |
